According to ChEMBL document CHEMBL4602617, “Discovery and optimization of heteroaryl piperazines as potent and selective PI3Kδ inhibitors” (Bioorg Med Chem Lett, 2020):

Tests used:
[1] = molecular target: Dual specificity mitogen-activated protein kinase kinase 6 (Homo sapiens, UniProt P52564); experiment: Inhibition of recombinant full length human His-tagged MAP2K6 expressed in baculovirus expression system using serine/threonine-3 peptide as substrate incubated for 60 mins in presence of ATP by Z'-LYTE assay
[2] = molecular target: Neurotensin receptor type 1 (Homo sapiens) (UniProt P30989); experiment: Displacement of [125I]neurotensin from NT1 receptor in human HEK293 EBNA cell membranes at 10 uM measured after 45 mins by radiometric scintillation analysis relative to control
[3] = molecular target: cGMP-dependent protein kinase 2 (Homo sapiens, UniProt Q13237); experiment: Inhibition of recombinant full length GST-tagged human PKG2 expressed in baculovirus expression system using Ser/Thr 01 as substrate after 1 hr in presence of ATP by Z'-LYTE assay
Ephrin type-A receptor 1 = Ephrin type-A receptor 1 (Homo sapiens, UniProt P21709); experiment: Inhibition of recombinant human GST-tagged EPHA1 cytoplasmic domain (568 to 976 residues) expressed in baculovirus expression system using Tyr 02 as substrate after 1 hr in presence of ATP by Z'LYTE assay
[4] = molecular target: Nuclear receptor subfamily 1 group I member 2 (Homo sapiens, UniProt O75469); experiment: Inhibition of PXR (unknown origin)
[5] = molecular target: Kappa-type opioid receptor (Homo sapiens) (UniProt P41145); experiment: Displacement of [3H]diprenorphine from full length human recombinant KOP receptor expressed in HEK293 cells at 10 uM measured after 60 mins by radiometric scintillation analysis relative to control; type: cell-based
[6] = system: Atrial natriuretic peptide receptor 1 (Cavia porcellus); experiment: Inhibition of guniea pig ANF at 10 uM relative to control
[7] = molecular target: Serine/threonine-protein kinase 24 (Homo sapiens, UniProt Q9Y6E0); experiment: Inhibition of recombinant full length human GST-tagged MST3 expressed in baculovirus expression system using serine/threonine-7 peptide as substrate incubated for 60 mins in presence of ATP by Z'-LYTE assay
[8] = Protein binding in dog plasma at 0.5 mg/kg, iv or 1 mg/kg, po; type: ADME, organism-based, Canis lupus familiaris; conditions: read-out: PPB (converted)
[9] = molecular target: Serine/threonine-protein kinase D2 (Homo sapiens, UniProt Q9BZL6); experiment: Inhibition of recombinant full length human GST-tagged PRKD2 expressed in baculovirus expression system using serine/threonine-01 peptide as substrate incubated for 60 mins in presence of ATP by Z'-LYTE assay
Ephrin type-A receptor 5 = Ephrin type-A receptor 5 (Homo sapiens, UniProt P54756); experiment: Inhibition of recombinant human GST-tagged EPHA5 cytoplasmic domain expressed in baculovirus expression system using tyrosine-01 peptide as substrate incubated for 60 mins in presence of ATP by Z'-Lyte assay
[10] = molecular target: Protein-tyrosine kinase 6 (Homo sapiens, UniProt Q13882); experiment: Inhibition of recombinant full length human His-tagged BRK expressed in baculovirus expression system using tyr01 peptide as substrate incubated for 60 mins in presence of ATP by Z'-LYTE assay
[11] = molecular target: Insulin-like growth factor 1 receptor (Homo sapiens, UniProt P08069); experiment: Inhibition of recombinant human His-tagged IGF1R expressed in baculovirus expression system using tyrosine 1 peptide as substrate incubated for 60 mins in presence of ATP by Z'-LYTE assay
MAO-A = MAO-A (Homo sapiens, UniProt P21397); experiment: Inhibition of recombinant full-length human MAO-A expressed in insect cells at 10 uM using kynuramine as substrate after 60 mins by spectrophotometric analysis relative to control; conditions: probe kynuramine
[12] = molecular target: D(2) dopamine receptor (Homo sapiens) (UniProt P14416); experiment: Displacement of [3H]spiperone from recombinant full length human recombinant D2S receptor expressed in CHO cells at 10 uM measured after 120 mins by radiometric scintillation analysis relative to control; type: cell-based
[13] = molecular target: Tyrosine-protein kinase ABL1 (Homo sapiens, UniProt P00519, G250E); experiment: Inhibition of recombinant full length human His-tagged ABL1 G250E mutant cytoplasmic domain expressed in baculovirus expression system using tyrosine-2 peptide as substrate incubated for 60 mins in presence of ATP by Z'-LYTE assay
CDK9/cyclin T1 = CDK9/cyclin T1 (Homo sapiens, UniProt P50750); experiment: Inhibition of recombinant full length human His-tagged CDK9/CyclinT1 expressed in baculovirus expression system using CDK7/9tide peptide as substrate incubated for 60 mins in presence of ATP by Adapta assay
[14] = molecular target: Serine/threonine-protein kinase 4 (Homo sapiens, UniProt Q13043); experiment: Inhibition of recombinant full length human GST-tagged MST1 expressed in baculovirus expression system using serine/threonine-7 peptide as substrate incubated for 60 mins in presence of ATP by Z'-LYTE assay
[15] = molecular target: Tyrosine-protein kinase CSK (Homo sapiens, UniProt P41240); experiment: Inhibition of recombinant full length human His-tagged CSK expressed in Escherichia coli expression system using tyrosine-2 peptide as substrate incubated for 60 mins in presence of ATP by Z'-LYTE assay
[16] = molecular target: Serine/threonine-protein kinase Nek1 (Homo sapiens, UniProt Q96PY6); experiment: Inhibition of recombinant human GST-tagged NEK1 catalytic domain (1 to 505 residues) expressed in baculovirus expression system using serine/threonine-7 peptide as substrate incubated for 60 mins in presence of ATP by Z'-LYTE assay
[17] = Clearance in rat liver microsomes; type: ADME, Microsome; conditions: read-out: CLH
[18] = molecular target: Dual specificity tyrosine-phosphorylation-regulated kinase 3 (Homo sapiens, UniProt O43781); experiment: Inhibition of recombinant full length human GST-tagged DYRK3 expressed in baculovirus expression system using serine/threonine-9 peptide as substrate incubated for 60 mins in presence of ATP by Z'-LYTE assay
[19] = molecular target: Testis-specific serine/threonine-protein kinase 2 (Homo sapiens, UniProt Q96PF2); experiment: Inhibition of recombinant full length human His-tagged STK22B expressed in baculovirus expression system using serine/threonine-04 peptide as substrate incubated for 60 mins in presence of ATP by Z'-LYTE assay
[20] = molecular target: Epidermal growth factor receptor (Homo sapiens, UniProt P00533); experiment: Inhibition of human EGFR (668 to 1210 residues) expressed in insect cells at 10 uM using Poly(Glu:Tyr) as substrate after 30 mins by radiometric scintillation analysis relative to control
[21] = molecular target: Protein kinase C beta type (Homo sapiens, UniProt P05771); experiment: Inhibition of recombinant full length human GST-tagged PKCbeta1 expressed in insect expression system using serine/threonine-7 peptide as substrate incubated for 60 mins in presence of ATP by Z'-LYTE assay
[22] = molecular target: Serine/threonine-protein kinase MARK2 (Homo sapiens, UniProt Q7KZI7); experiment: Inhibition of recombinant full length human GST-tagged MARK2 expressed in baculovirus expression system using serine/threonine-21 peptide as substrate incubated for 60 mins in presence of ATP by Z'-LYTE assay
[23] = molecular target: Mitogen-activated protein kinase 10 (Homo sapiens, UniProt P53779); experiment: Inhibition of recombinant full length human GST-tagged JNK3 expressed in baculovirus expression system using serine/threonine-4 peptide as substrate incubated for 60 mins in presence of ATP by Z'-LYTE assay
Chain of Mitogen-activated protein kinase 10 (P53779 whole entry): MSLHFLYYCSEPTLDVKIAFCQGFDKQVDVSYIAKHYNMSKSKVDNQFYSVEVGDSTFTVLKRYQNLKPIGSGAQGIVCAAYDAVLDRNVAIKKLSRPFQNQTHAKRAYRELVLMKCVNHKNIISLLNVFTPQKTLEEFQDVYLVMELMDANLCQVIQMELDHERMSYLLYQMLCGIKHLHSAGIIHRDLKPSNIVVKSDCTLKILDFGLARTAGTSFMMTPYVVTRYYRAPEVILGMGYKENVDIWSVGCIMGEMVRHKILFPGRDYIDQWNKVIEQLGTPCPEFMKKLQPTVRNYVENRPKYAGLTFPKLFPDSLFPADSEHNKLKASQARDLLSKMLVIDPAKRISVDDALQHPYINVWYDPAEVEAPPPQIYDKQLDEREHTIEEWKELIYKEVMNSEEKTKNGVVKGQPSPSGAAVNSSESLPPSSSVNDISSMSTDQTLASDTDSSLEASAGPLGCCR

Chain of Dual specificity mitogen-activated protein kinase kinase 6 (P52564 whole entry): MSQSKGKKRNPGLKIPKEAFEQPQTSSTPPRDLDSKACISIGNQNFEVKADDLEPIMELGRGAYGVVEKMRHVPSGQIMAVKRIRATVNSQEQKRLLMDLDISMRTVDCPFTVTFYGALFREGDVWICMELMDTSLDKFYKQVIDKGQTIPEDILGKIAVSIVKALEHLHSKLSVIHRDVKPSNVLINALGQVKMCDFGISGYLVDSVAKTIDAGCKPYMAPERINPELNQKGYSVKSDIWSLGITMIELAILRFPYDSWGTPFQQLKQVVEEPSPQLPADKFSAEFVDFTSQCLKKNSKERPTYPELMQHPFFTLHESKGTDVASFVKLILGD
Chain of Ephrin type-A receptor 5 (P54756 whole entry, the tested form may be a part): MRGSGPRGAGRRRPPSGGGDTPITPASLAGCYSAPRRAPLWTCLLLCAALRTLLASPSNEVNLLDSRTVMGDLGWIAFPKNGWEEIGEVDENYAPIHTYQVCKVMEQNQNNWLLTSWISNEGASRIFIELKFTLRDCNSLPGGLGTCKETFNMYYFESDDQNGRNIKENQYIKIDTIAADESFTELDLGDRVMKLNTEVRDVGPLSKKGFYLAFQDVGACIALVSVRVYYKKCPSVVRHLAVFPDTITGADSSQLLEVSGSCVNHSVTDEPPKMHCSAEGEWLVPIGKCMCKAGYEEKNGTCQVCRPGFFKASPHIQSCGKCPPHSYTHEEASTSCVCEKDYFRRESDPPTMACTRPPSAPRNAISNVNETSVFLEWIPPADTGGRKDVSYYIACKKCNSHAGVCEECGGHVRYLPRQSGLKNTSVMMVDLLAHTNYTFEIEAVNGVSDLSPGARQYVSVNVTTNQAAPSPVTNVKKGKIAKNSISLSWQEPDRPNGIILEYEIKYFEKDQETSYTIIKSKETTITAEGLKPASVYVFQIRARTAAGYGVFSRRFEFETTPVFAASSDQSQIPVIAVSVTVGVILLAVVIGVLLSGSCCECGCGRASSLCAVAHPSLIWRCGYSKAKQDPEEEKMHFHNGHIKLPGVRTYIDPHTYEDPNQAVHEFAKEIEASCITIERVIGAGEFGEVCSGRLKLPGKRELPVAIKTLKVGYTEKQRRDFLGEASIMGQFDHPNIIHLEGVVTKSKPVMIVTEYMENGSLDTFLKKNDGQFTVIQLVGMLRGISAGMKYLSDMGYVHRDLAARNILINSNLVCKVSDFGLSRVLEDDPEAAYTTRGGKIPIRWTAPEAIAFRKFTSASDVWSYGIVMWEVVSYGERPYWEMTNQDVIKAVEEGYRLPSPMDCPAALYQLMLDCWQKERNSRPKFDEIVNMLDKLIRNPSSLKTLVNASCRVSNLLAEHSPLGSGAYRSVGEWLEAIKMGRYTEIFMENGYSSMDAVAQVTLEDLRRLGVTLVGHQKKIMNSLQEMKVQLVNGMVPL
Chain of Serine/threonine-protein kinase MARK2 (Q7KZI7 whole entry): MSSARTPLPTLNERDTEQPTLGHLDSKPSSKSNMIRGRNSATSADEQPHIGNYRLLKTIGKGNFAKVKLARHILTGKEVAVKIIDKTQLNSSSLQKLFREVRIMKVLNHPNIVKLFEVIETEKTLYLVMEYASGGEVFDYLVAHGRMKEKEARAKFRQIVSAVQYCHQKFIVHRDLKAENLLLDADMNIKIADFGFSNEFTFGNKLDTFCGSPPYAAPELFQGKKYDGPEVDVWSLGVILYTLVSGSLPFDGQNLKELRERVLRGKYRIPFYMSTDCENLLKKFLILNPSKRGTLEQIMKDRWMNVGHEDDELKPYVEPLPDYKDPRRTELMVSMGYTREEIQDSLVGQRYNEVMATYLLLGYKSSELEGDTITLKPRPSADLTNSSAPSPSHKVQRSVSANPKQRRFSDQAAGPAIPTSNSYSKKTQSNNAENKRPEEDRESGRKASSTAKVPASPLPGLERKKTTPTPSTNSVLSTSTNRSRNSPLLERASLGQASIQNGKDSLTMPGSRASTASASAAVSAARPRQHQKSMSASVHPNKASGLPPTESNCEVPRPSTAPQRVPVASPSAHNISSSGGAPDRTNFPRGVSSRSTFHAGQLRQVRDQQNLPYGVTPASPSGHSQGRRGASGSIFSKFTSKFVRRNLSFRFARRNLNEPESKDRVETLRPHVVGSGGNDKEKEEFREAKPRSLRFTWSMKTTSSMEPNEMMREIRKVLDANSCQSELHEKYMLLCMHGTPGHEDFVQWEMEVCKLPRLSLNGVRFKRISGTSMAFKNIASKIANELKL
Chain of Ephrin type-A receptor 1 (P21709 whole entry, the tested form may be a part): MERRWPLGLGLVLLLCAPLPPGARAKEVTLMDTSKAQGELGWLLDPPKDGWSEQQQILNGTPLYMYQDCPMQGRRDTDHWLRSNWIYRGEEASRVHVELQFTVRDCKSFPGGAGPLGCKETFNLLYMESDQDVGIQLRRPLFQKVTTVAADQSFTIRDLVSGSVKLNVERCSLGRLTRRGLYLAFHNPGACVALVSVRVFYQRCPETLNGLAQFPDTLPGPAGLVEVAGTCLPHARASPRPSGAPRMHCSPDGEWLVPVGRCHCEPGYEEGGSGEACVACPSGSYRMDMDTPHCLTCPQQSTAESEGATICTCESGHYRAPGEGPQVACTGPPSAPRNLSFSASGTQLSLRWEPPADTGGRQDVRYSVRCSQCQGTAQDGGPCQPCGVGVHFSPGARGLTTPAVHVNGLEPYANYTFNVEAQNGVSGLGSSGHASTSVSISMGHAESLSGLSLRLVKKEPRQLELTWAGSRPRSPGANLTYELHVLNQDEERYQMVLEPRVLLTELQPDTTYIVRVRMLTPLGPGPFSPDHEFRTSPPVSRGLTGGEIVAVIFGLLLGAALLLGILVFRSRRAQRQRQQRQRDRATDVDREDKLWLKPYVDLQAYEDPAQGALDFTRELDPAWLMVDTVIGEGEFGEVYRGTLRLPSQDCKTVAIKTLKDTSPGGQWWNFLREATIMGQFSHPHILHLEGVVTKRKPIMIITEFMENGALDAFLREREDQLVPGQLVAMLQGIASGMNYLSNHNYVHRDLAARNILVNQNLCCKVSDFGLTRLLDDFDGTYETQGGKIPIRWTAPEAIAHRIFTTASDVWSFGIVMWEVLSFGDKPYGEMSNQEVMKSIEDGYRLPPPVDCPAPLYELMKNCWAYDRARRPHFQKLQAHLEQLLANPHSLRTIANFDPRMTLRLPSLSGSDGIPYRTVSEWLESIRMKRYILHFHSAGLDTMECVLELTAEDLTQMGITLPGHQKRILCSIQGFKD
Chain of Serine/threonine-protein kinase Nek1 (Q96PY6 whole entry, the tested form may be a part): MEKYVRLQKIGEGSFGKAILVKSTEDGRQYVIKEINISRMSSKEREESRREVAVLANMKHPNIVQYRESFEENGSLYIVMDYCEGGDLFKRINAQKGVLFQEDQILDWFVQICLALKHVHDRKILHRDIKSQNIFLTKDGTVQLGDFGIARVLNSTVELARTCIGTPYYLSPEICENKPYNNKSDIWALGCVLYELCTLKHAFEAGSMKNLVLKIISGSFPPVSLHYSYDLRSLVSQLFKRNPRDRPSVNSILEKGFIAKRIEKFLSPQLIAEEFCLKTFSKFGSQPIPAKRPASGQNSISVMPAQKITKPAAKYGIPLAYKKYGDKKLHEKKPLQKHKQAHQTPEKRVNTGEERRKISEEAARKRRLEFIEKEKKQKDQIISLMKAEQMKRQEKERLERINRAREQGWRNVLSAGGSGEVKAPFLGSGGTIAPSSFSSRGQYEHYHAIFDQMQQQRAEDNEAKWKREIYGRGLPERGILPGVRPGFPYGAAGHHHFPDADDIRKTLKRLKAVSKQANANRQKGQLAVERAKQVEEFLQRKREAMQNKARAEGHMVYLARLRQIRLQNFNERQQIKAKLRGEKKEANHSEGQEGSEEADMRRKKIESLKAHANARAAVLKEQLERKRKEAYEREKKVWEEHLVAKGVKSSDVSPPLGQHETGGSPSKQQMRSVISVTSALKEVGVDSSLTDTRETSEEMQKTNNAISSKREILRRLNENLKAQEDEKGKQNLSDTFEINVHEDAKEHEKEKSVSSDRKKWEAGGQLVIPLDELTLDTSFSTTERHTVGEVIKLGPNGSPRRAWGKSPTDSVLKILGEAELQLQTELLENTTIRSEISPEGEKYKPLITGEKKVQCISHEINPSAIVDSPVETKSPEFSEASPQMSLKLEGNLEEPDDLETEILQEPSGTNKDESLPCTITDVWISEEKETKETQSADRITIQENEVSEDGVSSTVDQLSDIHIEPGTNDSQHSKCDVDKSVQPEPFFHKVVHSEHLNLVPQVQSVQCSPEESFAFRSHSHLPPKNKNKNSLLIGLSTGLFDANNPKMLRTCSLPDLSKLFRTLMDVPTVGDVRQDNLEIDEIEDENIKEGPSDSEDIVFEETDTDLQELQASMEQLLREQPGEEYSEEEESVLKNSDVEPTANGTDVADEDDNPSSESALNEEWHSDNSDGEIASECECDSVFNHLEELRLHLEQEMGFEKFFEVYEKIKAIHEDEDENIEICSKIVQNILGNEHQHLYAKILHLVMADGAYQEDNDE

For `C[C@@H]1C[C@H]1C(=O)N1CCN(c2cnc(C#N)c(-c3cnn(C)c3)n2)C[C@H]1C`, which IC50 [1] is on record?
The IC50 was greater than 100 µM.

And the inhibition [2]?
The inhibition was 1%.

What about the IC50 [3] of the same compound?
Its IC50 is greater than 100 µM.

What about the IC50 (Ephrin type-A receptor 1) of the same compound?
The IC50 was 34 µM.

And the EC50 [4]?
Its EC50 is greater than 30 µM.

And the inhibition [5]?
The inhibition was 5%.

And the inhibition [6]?
The inhibition was 8%.

What about the IC50 [7] of the same compound?
Its IC50 is greater than 100 µM.

What about the fraction unbound [8] of the same compound?
Its fraction unbound is 0.213.

And the IC50 [9]?
The IC50 was greater than 100 µM.

What about the IC50 (Ephrin type-A receptor 5) of the same compound?
Its IC50 is greater than 100 µM.

And the IC50 [10]?
The IC50 was greater than 100 µM.

What about the IC50 [11] of the same compound?
The IC50 was greater than 100 µM.

And the inhibition at 1 h, 10 µM (MAO-A)?
Its inhibition at 1 h, 10 µM is 11%.

And the inhibition [12]?
Its inhibition is 0%.

And the IC50 [13]?
The IC50 was greater than 100 µM.

And the IC50 (CDK9/cyclin T1)?
Its IC50 is greater than 100 µM.

And the IC50 [14]?
The IC50 was greater than 100 µM.

What about the IC50 [15] of the same compound?
The IC50 was greater than 100 µM.

What about the IC50 [16] of the same compound?
The IC50 was greater than 100 µM.

What about the CLint scaled [17] of the same compound?
The CLint scaled was 47 mL/min/kg.

What about the IC50 [18] of the same compound?
Its IC50 is greater than 100 µM.

What about the IC50 [19] of the same compound?
Its IC50 is greater than 100 µM.

What about the inhibition [20] of the same compound?
The inhibition was -9%.

And the IC50 [21]?
Its IC50 is greater than 100 µM.

What about the IC50 [22] of the same compound?
The IC50 was greater than 100 µM.

What about the IC50 [23] of the same compound?
Its IC50 is greater than 100 µM.
